# Source: patent publication US20260274829A1, “NEW E3 UBIQUITIN LIGASE LIGAND, PROTEIN DEGRADATION AGENT AND USE THEREOF” (GLUETACS THERAPEUTICS (SHANGHAI) CO., LTD., priority 2023, published 2026)
# pIC50: −log10 of the molar value.
# Target: T1, human Cereblon WT GST-tagged protein (Homo sapiens, UniProt Q96SW2)
# T1 construct: purchased CISBIO 64BDCRBNPEH
# Test: CRBN binding, HTRF CEREBLON BINDING kit
# Settings: CRBN binding, HTRF CEREBLON BINDING kit
# Summary of the method: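 Binding inhibition was calculated from the 665/620 nm emission ratios, with blank wells and solvent wells as references. Test compounds competed for GST-tagged human Cereblon WT against a Thalidomide-Re reagent paired with GST Eu antibody. Plates were sealed and held at room temperature for 3 hours before the HTRF read.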
# T1 sequence (Q96SW2 whole entry): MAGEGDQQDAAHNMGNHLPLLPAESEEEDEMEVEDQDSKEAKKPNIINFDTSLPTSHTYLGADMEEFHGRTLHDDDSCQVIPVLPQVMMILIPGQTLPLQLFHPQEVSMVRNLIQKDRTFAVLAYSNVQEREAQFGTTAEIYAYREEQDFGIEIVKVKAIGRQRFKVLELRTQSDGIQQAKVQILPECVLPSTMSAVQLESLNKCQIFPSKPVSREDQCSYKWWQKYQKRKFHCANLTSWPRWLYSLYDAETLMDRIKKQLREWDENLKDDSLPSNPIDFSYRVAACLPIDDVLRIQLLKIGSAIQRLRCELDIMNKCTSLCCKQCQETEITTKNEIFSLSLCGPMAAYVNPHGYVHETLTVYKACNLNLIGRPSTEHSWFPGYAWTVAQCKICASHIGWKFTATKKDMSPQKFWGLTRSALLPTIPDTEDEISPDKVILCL
row,SMILES,pIC50
1,"O=C1CCN(c2cccc(CN3CCN(C4CCN(c5ccc(-c6cc(F)c7c(c6)C(=O)N(C(C(=O)Nc6nccs6)c6ncn8c6CCC8)C7)cc5)CC4)CC3)c2)C(=O)N1 (centres unmarked) [GT-06245, 2-(6,7-dihydro-5H-pyrrolo[1,2-c]imidazol-1-yl)-2-(6-(4-(4-(4-(3-(2,4-dioxotetrahydropyrimidin-1(2H)-yl)benzyl)piperazin-1-yl)piperidin-1-yl)phenyl)-4-fluoro-1-oxoisoindolin-2-yl)-N-(thiazol-2-yl)acetamide]",> 6.30
2,"O=C1CCN(c2ccc(CN3CCN(C4CCN(c5ccc(-c6cc(F)c7c(c6)C(=O)N(C(C(=O)Nc6nccs6)c6ncn8c6CCC8)C7)cc5)CC4)CC3)nc2)C(=O)N1 (centres unmarked) [GT-06246, 2-(6,7-dihydro-5H-pyrrolo[1,2-c]imidazol-1-yl)-2-(6-(4-(4-(4-((5-(2,4-dioxotetrahydropyrimidin-1(2H)-yl)pyridin-2-yl)methyl)piperazin-1-yl)piperidin-1-yl)phenyl)-4-fluoro-1-oxoisoindolin-2-yl)-N-(thiazol-2-yl)acetamide]",> 6.30
3,"O=C1CCC(Nc2cccc(CN3CCN(C4CCN(c5ccc(-c6cc(F)c7c(c6)C(=O)N(C(C(=O)Nc6nccs6)c6ncn8c6CCC8)C7)cc5)CC4)CC3)c2)C(=O)N1 (centres unmarked) [GT-06247, 2-(6,7-dihydro-5H-pyrrolo[1,2-c]imidazol-1-yl)-2-(6-(4-(4-(4-(3-((2,6-dioxopiperidin-3-yl)amino)benzyl)piperazin-1-yl)piperidin-1-yl)phenyl)-4-fluoro-1-oxoisoindolin-2-yl)-N-(thiazol-2-yl)acetamide]",6.00 to 6.30
4,"O=C1CCC(c2ccc(CN3C4CCC3CN(c3ccc(-c5cc(F)c6c(c5)C(=O)N(C(C(=O)Nc5nccs5)c5ncn7c5CCC7)C6)cc3)C4)cc2)C(=O)N1 (centres unmarked) [GT-06252, 2-(6,7-dihydro-5H-pyrrolo[1,2-c]imidazol-1-yl)-2-(6-(4-(8-(4-(2,6-dioxopiperidin-3-yl)benzyl)-3,8-diazabicyclo[3.2.1]octan-3-yl)phenyl)-4-fluoro-1-oxoisoindolin-2-yl)-N-(thiazol-2-yl)acetamide]",> 6.30
5,"O=C1CCN(c2ccc(CN3C4CCC3CN(c3ccc(-c5cc(F)c6c(c5)C(=O)N(C(C(=O)Nc5nccs5)c5ncn7c5CCC7)C6)cc3)C4)cc2)C(=O)N1 (centres unmarked) [GT-06253, 2-(6,7-dihydro-5H-pyrrolo[1,2-c]imidazol-1-yl)-2-(6-(4-(8-(4-(2,4-dioxotetrahydropyrimidin-1(2H)-yl)benzyl)-3,8-diazabicyclo[3.2.1]octan-3-yl)phenyl)-4-fluoro-1-oxoisoindolin-2-yl)-N-(thiazol-2-yl)acetamide]",6.00 to 6.30
6,"O=C1CCN(c2cccc(CN3C4CCC3CN(c3ccc(-c5cc(F)c6c(c5)C(=O)N(C(C(=O)Nc5nccs5)c5ncn7c5CCC7)C6)cc3)C4)c2)C(=O)N1 (centres unmarked) [GT-06254, 2-(6,7-dihydro-5H-pyrrolo[1,2-c]imidazol-1-yl)-2-(6-(4-(8-(3-(2,4-dioxotetrahydropyrimidin-1(2H)-yl)benzyl)-3,8-diazabicyclo[3.2.1]octan-3-yl)phenyl)-4-fluoro-1-oxoisoindolin-2-yl)-N-(thiazol-2-yl)acetamide]",> 6.30
7,"O=C1CCN(c2ccc(CN3C4CCC3CN(c3ccc(-c5cc(F)c6c(c5)C(=O)N(C(C(=O)Nc5nccs5)c5ncn7c5CCC7)C6)cc3)C4)nc2)C(=O)N1 (centres unmarked) [GT-06255, 2-(6,7-dihydro-5H-pyrrolo[1,2-c]imidazol-1-yl)-2-(6-(4-(8-((5-(2,4-dioxotetrahydropyrimidin-1(2H)-yl)pyridin-2-yl)methyl)-3,8-diazabicyclo[3.2.1]octan-3-yl)phenyl)-4-fluoro-1-oxoisoindolin-2-yl)-N-(thiazol-2-yl)acetamide]",> 6.30
8,"O=C1CCC(c2ccc(CN3CCN(C4CCN(c5ccc(-c6cc(F)c7c(c6)C(=O)N(C(C(=O)Nc6nccs6)c6ncn8c6CCC8)C7)cc5)CC4(F)F)CC3)cc2)C(=O)N1 (centres unmarked) [GT-06317, 2-(6,7-dihydro-5H-pyrrolo[1,2-c]imidazol-1-yl)-2-(6-(4-(4-(4-(4-(2,6-dioxopiperidin-3-yl)benzyl)piperazin-1-yl)-3,3-difluoropiperidin-1-yl)phenyl)-4-fluoro-1-oxoisoindolin-2-yl)-N-(thiazol-2-yl)acetamide]",5.72 to 6.00
9,"O=C1CCN(c2ccc(CN3CCN(C4CCN(c5ccc(-c6cc(F)c7c(c6)C(=O)N(C(C(=O)Nc6nccs6)c6ncn8c6CCC8)C7)cc5)CC4(F)F)CC3)cc2)C(=O)N1 (centres unmarked) [GT-06318, 2-(6,7-dihydro-5H-pyrrolo[1,2-c]imidazol-1-yl)-2-(6-(4-(4-(4-(4-(2,4-dioxotetrahydropyrimidin-1(2H)-yl)benzyl)piperazin-1-yl)-3,3-difluoropiperidin-1-yl)phenyl)-4-fluoro-1-oxoisoindolin-2-yl)-N-(thiazol-2-yl)acetamide]",5.72 to 6.00
10,"O=C1CCN(c2ccc(CN3CCN(C4CCN(c5ccc(-c6cc(F)c7c(c6)C(=O)N(C(C(=O)Nc6nccs6)c6ncn8c6CCC8)C7)cc5)CC4(F)F)CC3)nc2)C(=O)N1 (centres unmarked) [GT-06319, 2-(6,7-dihydro-5H-pyrrolo[1,2-c]imidazol-1-yl)-2-(6-(4-(4-(4-((5-(2,4-dioxotetrahydropyrimidin-1(2H)-yl)pyridin-2-yl)methyl)piperazin-1-yl)-3,3-difluoropiperidin-1-yl)phenyl)-4-fluoro-1-oxoisoindolin-2-yl)-N-(thiazol-2-yl)acetamide]",> 6.30
11,"O=C1CCC(c2ccc(CN3CCC(N4CCN(c5ccc(-c6cc(F)c7c(c6)C(=O)N(C(C(=O)Nc6nccs6)c6ncn8c6CCC8)C7)cc5)CC4)CC3)cc2)C(=O)N1 (centres unmarked) [GT-06326, 2-(6,7-dihydro-5H-pyrrolo[1,2-c]imidazol-1-yl)-2-(6-(4-(4-(1-(4-(2,6-dioxopiperidin-3-yl)benzyl)piperidin-4-yl)piperazin-1-yl)phenyl)-4-fluoro-1-oxoisoindolin-2-yl)-N-(thiazol-2-yl)acetamide]",6.00 to 6.30

# Further lines, results first:
row,pIC50,SMILES
1,6.00 to 6.30,"O=C1CCN(c2ccc(CN3CCC(N4CCN(c5ccc(-c6cc(F)c7c(c6)C(=O)N(C(C(=O)Nc6nccs6)c6ncn8c6CCC8)C7)cc5)CC4)CC3)cc2)C(=O)N1 (centres unmarked) [GT-06327, 2-(6,7-dihydro-5H-pyrrolo[1,2-c]imidazol-1-yl)-2-(6-(4-(4-(1-(4-(2,4-dioxotetrahydropyrimidin-1(2H)-yl)benzyl)piperidin-4-yl)piperazin-1-yl)phenyl)-4-fluoro-1-oxoisoindolin-2-yl)-N-(thiazol-2-yl)acetamide]"
2,6.00 to 6.30,"O=C1CCN(c2cccc(CN3CCC(N4CCN(c5ccc(-c6cc(F)c7c(c6)C(=O)N(C(C(=O)Nc6nccs6)c6ncn8c6CCC8)C7)cc5)CC4)CC3)c2)C(=O)N1 (centres unmarked) [GT-06328, 2-(6,7-dihydro-5H-pyrrolo[1,2-c]imidazol-1-yl)-2-(6-(4-(4-(1-(3-(2,4-dioxotetrahydropyrimidin-1(2H)-yl)benzyl)piperidin-4-yl)piperazin-1-yl)phenyl)-4-fluoro-1-oxoisoindolin-2-yl)-N-(thiazol-2-yl)acetamide]"
3,5.72 to 6.00,"O=C1CCN(c2ccc(CN3CCC(N4CCN(c5ccc(-c6cc(F)c7c(c6)C(=O)N(C(C(=O)Nc6nccs6)c6ncn8c6CCC8)C7)cc5)CC4)CC3)nc2)C(=O)N1 (centres unmarked) [GT-06329, 2-(6,7-dihydro-5H-pyrrolo[1,2-c]imidazol-1-yl)-2-(6-(4-(4-(1-((5-(2,4-dioxotetrahydropyrimidin-1(2H)-yl)pyridin-2-yl)methyl)piperidin-4-yl)piperazin-1-yl)phenyl)-4-fluoro-1-oxoisoindolin-2-yl)-N-(thiazol-2-yl)acetamide]"
4,5.72 to 6.00,"O=C1CCC(Nc2cccc(CN3CCC(N4CCN(c5ccc(-c6cc(F)c7c(c6)C(=O)N(C(C(=O)Nc6nccs6)c6ncn8c6CCC8)C7)cc5)CC4)CC3)c2)C(=O)N1 (centres unmarked) [GT-06331, 2-(6,7-dihydro-5H-pyrrolo[1,2-c]imidazol-1-yl)-2-(6-(4-(4-(1-(3-((2,6-dioxopiperidin-3-yl)amino)benzyl)piperidin-4-yl)piperazin-1-yl)phenyl)-4-fluoro-1-oxoisoindolin-2-yl)-N-(thiazol-2-yl)acetamide]"
5,> 6.30,"CN(C)C(=O)c1cc2cnc(Nc3ccc(N4CCN(Cc5ccc(C6CCC(=O)NC6=O)cc5)CC4)cn3)nc2n1C1CCCC1 (centres unmarked) [GT-06339, 7-cyclopentyl-2-((5-(4-(4-(2,6-dioxopiperidin-3-yl)benzyl)piperazin-1-yl)pyridin-2-yl)amino)-N,N-dimethyl-7H-pyrrolo[2,3-d]pyrimidine-6-carboxamide]"
6,6.00 to 6.30,"CN(C)C(=O)c1cc2cnc(Nc3ccc(N4CCN(Cc5ccc(N6CCC(=O)NC6=O)cc5)CC4)cn3)nc2n1C1CCCC1 [GT-06340, 7-cyclopentyl-2-((5-(4-(4-(2,4-dioxotetrahydropyrimidin-1(2H)-yl)benzyl)piperazin-1-yl)pyridin-2-yl)amino)-N,N-dimethyl-7H-pyrrolo[2,3-d]pyrimidine-6-carboxamide]"
7,6.00 to 6.30,"CN(C)C(=O)c1cc2cnc(Nc3ccc(N4CCN(Cc5cccc(N6CCC(=O)NC6=O)c5)CC4)cn3)nc2n1C1CCCC1 [GT-06341, 7-cyclopentyl-2-((5-(4-(3-(2,4-dioxotetrahydropyrimidin-1(2H)-yl)benzyl)piperazin-1-yl)pyridin-2-yl)amino)-N,N-dimethyl-7H-pyrrolo[2,3-d]pyrimidine-6-carboxamide]"
8,5.72 to 6.00,"CN(C)C(=O)c1cc2cnc(Nc3ccc(N4CCN(Cc5ccc(N6CCC(=O)NC6=O)cn5)CC4)cn3)nc2n1C1CCCC1 [GT-06342, 7-cyclopentyl-2-((5-(4-((5-(2,4-dioxotetrahydropyrimidin-1(2H)-yl)pyridin-2-yl)methyl)piperazin-1-yl)pyridin-2-yl)amino)-N,N-dimethyl-7H-pyrrolo[2,3-d]pyrimidine-6-carboxamide]"
9,6.00 to 6.30,"Cc1ccc(-c2c(C)noc2C)cc1N(CC1CCN(Cc2ccc(N3CCC(=O)NC3=O)cn2)CC1)c1ccc(C2(C#N)CC2)cc1 [GT-06411, 1-(4-((5-(3,5-dimethylisoxazol-4-yl)-2-methylphenyl)((1-((5-(2,4-dioxotetrahydropyrimidin-1(2H)-yl)pyridin-2-yl)methyl)piperidin-4-yl)methyl)amino)phenyl)cyclopropane-1-carbonitrile]"
